# Experimental data: BindingDB's records for doi:10.1128/AAC.00802-08 (University of Medicine and Dentistry of New Jersey, 2008)
# How the values were obtained:
# 1,3-beta-glucan synthase [1] = molecular target: T1, 1,3-beta-glucan synthase (Candida tropicalis, UniProt B6S6L8, S80P); assay: Inhibition of Candida tropicalis T3 blood stream isolate glucan synthase subunit FKS1p with FLTLS/PLRDP mutant at monophasic kinetics
# 1,3-beta-glucan synthase [2] = molecular target: T1, 1,3-beta-glucan synthase; assay: Inhibition of Candida tropicalis T19 blood stream isolate glucan synthase subunit FKS1p with FLTLS/PLRDP mutant at monophasic kinetics
# 1,3-beta-glucan synthase [3] = molecular target: 1,3-beta-glucan synthase (Candida tropicalis, UniProt B6S6L8, F76L); assay: Inhibition of Candida tropicalis T26 blood stream isolate glucan synthase subunit FKS1p with LLTLSLRDP mutant at monophasic kinetics
# 1,3-beta-glucan synthase [4] = molecular target: T1, 1,3-beta-glucan synthase; assay: Inhibition of Candida tropicalis T19 blood stream isolate glucan synthase subunit FKS1p with FLTLS/PLRDP mutant at biphasic kinetics
# [5] = molecular target: T2, 1,3-beta-D-glucan synthase catalytic subunit (Candida albicans, UniProt O13383); assay: Inhibition of Candida albicans ATCC 90028 glucan synthase at monophasic kinetics
# T2 sequence (O13383 whole entry): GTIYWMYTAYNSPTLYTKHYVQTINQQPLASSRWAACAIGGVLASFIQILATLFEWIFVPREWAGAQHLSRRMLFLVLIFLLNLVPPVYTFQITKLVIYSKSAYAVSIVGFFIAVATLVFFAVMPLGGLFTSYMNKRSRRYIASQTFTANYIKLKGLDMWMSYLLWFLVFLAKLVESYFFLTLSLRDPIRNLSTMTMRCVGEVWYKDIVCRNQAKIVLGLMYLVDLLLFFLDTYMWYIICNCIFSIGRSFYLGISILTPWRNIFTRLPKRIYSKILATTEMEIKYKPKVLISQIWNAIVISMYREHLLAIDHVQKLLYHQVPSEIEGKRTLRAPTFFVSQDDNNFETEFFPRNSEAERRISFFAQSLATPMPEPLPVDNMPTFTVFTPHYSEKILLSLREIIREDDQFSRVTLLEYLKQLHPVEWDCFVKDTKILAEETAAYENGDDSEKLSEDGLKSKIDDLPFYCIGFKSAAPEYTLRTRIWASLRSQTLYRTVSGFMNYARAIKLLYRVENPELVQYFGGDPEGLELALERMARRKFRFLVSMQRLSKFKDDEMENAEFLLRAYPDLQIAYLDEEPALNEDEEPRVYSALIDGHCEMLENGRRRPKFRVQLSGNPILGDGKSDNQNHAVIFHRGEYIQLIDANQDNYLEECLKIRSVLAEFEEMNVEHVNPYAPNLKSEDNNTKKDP
# 1,3-beta-glucan synthase [6] = molecular target: T1, 1,3-beta-glucan synthase; assay: Inhibition of Candida tropicalis T3 blood stream isolate glucan synthase subunit FKS1p with FLTLS/PLRDP mutant at biphasic kinetics
# T1 sequence (B6S6L8 entry or part of it, stated change not applied): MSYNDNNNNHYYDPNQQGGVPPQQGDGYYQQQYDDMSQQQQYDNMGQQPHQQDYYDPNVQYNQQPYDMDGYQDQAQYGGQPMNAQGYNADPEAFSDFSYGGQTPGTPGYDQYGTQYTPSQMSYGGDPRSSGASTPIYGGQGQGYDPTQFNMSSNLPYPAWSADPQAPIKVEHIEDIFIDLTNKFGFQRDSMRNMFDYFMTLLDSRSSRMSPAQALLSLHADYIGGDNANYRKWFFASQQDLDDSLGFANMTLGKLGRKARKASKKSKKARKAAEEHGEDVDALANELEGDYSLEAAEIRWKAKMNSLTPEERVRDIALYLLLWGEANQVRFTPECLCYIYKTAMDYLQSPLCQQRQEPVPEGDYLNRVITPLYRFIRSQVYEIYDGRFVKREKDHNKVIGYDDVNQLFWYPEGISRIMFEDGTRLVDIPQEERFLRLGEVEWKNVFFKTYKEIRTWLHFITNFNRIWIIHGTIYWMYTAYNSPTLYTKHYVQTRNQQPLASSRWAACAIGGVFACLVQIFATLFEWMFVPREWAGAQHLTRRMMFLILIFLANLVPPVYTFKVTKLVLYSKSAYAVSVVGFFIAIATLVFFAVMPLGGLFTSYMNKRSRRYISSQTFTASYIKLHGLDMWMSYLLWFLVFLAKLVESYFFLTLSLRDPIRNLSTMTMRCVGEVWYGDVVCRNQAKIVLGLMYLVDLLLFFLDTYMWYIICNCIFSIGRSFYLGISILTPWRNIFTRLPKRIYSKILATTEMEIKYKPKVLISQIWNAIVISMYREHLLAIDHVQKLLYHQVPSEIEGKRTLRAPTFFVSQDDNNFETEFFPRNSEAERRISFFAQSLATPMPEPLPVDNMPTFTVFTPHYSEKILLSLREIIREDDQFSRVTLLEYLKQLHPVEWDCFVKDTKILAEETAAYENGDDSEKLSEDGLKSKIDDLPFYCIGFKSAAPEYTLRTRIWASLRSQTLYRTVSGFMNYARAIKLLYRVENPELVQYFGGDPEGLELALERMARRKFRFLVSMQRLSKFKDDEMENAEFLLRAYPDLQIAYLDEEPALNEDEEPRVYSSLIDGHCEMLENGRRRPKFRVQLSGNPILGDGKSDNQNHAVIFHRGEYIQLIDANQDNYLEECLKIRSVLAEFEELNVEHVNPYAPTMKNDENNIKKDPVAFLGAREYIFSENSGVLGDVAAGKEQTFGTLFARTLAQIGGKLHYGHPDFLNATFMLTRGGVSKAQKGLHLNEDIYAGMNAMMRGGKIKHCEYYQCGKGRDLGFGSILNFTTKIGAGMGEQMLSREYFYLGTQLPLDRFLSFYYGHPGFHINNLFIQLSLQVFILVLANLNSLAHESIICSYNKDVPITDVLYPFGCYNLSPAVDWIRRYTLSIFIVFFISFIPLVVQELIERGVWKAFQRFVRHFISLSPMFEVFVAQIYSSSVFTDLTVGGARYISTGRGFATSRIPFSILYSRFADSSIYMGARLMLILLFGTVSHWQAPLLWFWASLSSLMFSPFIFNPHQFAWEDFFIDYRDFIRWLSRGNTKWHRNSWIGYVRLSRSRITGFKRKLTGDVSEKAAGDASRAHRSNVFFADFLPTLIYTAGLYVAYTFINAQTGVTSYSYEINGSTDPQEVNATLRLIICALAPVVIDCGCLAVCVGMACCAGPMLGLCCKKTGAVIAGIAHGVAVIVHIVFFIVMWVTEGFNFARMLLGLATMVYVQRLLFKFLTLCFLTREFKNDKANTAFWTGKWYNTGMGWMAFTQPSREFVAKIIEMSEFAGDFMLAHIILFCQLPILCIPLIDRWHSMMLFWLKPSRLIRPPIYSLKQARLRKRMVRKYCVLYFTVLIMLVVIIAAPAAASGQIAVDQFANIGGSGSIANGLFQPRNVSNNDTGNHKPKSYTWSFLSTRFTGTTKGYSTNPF
# 1,3-beta-glucan synthase (Candida tropicalis, UniProt B6S6L8, F76L), sequence (B6S6L8 entry or part of it, stated change not applied): as above
smiles,measurement,setting,value
CCC(C)CC(C)CCCCCCCCC(=O)N[C@H]1C[C@@H](O)[C@@H](NCCN)NC(=O)[C@@H]2[C@@H](O)CCN2C(=O)[C@H]([C@H](O)CCN)NC(=O)[C@H]([C@H](O)[C@@H](O)c2ccc(O)cc2)NC(=O)[C@@H]2C[C@@H](O)CN2C(=O)[C@H]([C@@H](C)O)NC1=O (stereo partly specified) [CHEBI:474180],IC50,"1,3-beta-glucan synthase [1]",0.306 nM
same,IC50,"1,3-beta-glucan synthase [2]",0.296 nM
same,IC50,"1,3-beta-glucan synthase [3]",77 nM
same,IC50,"1,3-beta-glucan synthase [4]",264 nM
same,IC50,[5],0.5 nM
same,IC50,"1,3-beta-glucan synthase [6]",370 nM
